The values that follow come from patent EP4703354A1, “COMPOUND AS CCR6 ANTAGONIST, AND PHARMACEUTICAL COMPOSITION AND USE THEREOF” (Wuhan Createrna Science and Technology Co.,Ltd., priority 2023, dated 2024).

Where two headings read alike, the source gives them in different places.

Series [1] can be described thus: in vitro liver microsome metabolic stability, rat. Format: in vitro ADME. The note with it: Rat liver microsomes, 37°C. The method in brief:
(§1)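 Test compound at 1 µM final (100 µM working solution diluted 1:100) incubated at 37°C with liver microsomes in pH 7.4 phosphate buffer with NADP/G6P/G6PDH/MgCl2 regenerating system; sampled 0–30 min, LC-MS/MS vs internal standard. T1/2 = 0.693/k from remaining-fraction decay.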

Series [2] is described as follows: in vitro liver microsome metabolic stability, beagle dog. Format: in vitro ADME. The note with it: Beagle dog liver microsomes, 37°C. The method in brief: as §1
A short description of series [3]: in vitro liver microsome metabolic stability, human. The note with it: Human liver microsomes, 37°C. In kind it is in vitro ADME. The method in brief: as §1
(In general: Liver microsomes are vesicles of endoplasmic reticulum, rich in cytochrome P450 enzymes.)

Series [4] is described as follows: in vitro liver microsome metabolic stability, mouse. The note with it: Mouse liver microsomes, 37°C. Format: in vitro ADME. As to the method: Preparation of working solutions for test compounds and standards: An appropriate amount of the compound was accurately weighed and dissolved in a corresponding volume of suitable solvent to prepare 1 mM stock solutions of the test compounds and standards. The stock solutions were then diluted with appropriate solvent to obtain 100 µM working solutions of the test compounds, ensuring that the DMSO content in the working solutions remained below 10%.
The internal standard compound testosterone (or tolbutamide) and its corresponding solvent, internal standard concentration (200 ng/mL), were selected based on the properties of the test compound.
• Solution A: 0.1 mol/L K2HPO4 (2.28 g K2HPO4·3H2O was dissolved in 100 mL of double-distilled water); • Solution B: 0.1 mol/L KH2PO4 (1.36 g KH2PO4 was dissolved in 100 mL of double-distilled water); • 80.2 mL of Solution A and 19.8 mL of Solution B were mixed thoroughly, and the pH was adjusted to 7.4.
37.5 mg of glycine was weighed, dissolved in 100 mL of ultrapure water, and adjusted to pH 8.0 with NaOH.
1.25 mg of glucose-6-phosphate dehydrogenase (400 U/mg) was weighed (the specific amount weighed was calculated based on the activity of the purchased glucose-6-phosphate dehydrogenase), dissolved in 1 mL of glycine buffer to a concentration of 500 U/mL, aliquoted into 20 µL per tube, and stored at -20°C for future use.
7.83 mg of NADP, 0.06 mL of D-glucose-6-phosphate (260 mg/mL), and 10.17 mg of MgCl2·6H2O were precisely weighed.
The mixture was dissolved in 1 mL of pure water. The cofactor ratio composition: NADP 10 mM, D-glucose-6-phosphate 60 mM, MgCl2·6H2O 50 mM.
The reaction system (taking a 500 µL system as an example) was composed of the following solution ratios: 416.5 µL phosphate buffer, 5 µL compound working solution, 25 µL liver microsomes, 3.5 µL glucose-6-phosphate dehydrogenase, and 50 µL cofactor solution. The total incubation volume could be adjusted according to experimental requirements.
416.5 µL of phosphate buffer was taken, 25 µL of liver microsomes, 3.5 µL of glucose-6-phosphate dehydrogenase, and 50 µL of cofactor solution were added, vortexed twice to mix, and preincubated in a 37°C water bath for 5 minutes. Then, 5 µL of the test compound working solution was added, vortexed twice to mix, each time for 2-3 seconds, and placed in a 37°C water bath to initiate the reaction, with two parallel samples set. At 0.5 min, 1 min, 2 min, 5 min, 15 min, and 30 min after the reaction, 50 µL of the mixture was taken and added to centrifuge tubes containing 200 µL of 0°C pre-cooled internal standard working solution to terminate the reaction, vortexed for 1 minute to mix, and centrifuged at 13,000 rpm for 10 minutes in a 4°C pre-cooled high-speed centrifuge. The supernatant was collected for analysis. After the compound was added and vortex-mixed, 50 µL of the mixture was rapidly transferred to a centrifuge tube containing 200 µL of a pre-cooled (0°C) internal standard working solution to terminate the reaction, vortex-mixed for 1 minute, and used as the relative zero-point sample (relative to the standard group). The sample was then placed into a 37°C water bath to initiate the reaction, and timing was started.
The sample analysis of the test compound was performed using the liquid chromatography-tandem mass spectrometry (LCMS/MS) method. The semi-quantitative determination was performed using the ratio of the analyte peak area to the internal standard peak area. The retention times of the analyte and internal standard, chromatogram acquisition, and chromatogram integration were processed using Analyst software.
The in vitro elimination rate constant k of the test compound and the control compound was determined by converting the ratio of the peak area of the test compound to the internal standard into the remaining rate, and T1/2 was then calculated according to the following formula. T1/2 = (Ln2)/(k) = (0.693)/(k) [formula] Table 3. […]

In another series the target is T1, human CCR6 (Homo sapiens, UniProt P51684).
T1 construct: expressed in transfected cells; host or cells: HEK293
T1 sequence (P51684 1-374): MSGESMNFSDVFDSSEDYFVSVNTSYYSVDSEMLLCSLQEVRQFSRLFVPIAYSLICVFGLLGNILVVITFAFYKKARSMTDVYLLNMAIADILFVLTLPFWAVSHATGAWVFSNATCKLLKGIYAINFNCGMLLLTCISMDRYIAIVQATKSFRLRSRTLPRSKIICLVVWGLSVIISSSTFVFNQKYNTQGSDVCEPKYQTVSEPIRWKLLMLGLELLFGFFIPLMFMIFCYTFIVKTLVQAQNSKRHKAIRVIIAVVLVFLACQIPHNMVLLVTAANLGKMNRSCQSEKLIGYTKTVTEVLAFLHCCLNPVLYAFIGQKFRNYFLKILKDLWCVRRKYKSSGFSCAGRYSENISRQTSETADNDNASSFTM
Nature of the series: human CCR6 calcium flux activity (FLIPR, HEK293 cells stably expressing human CCR6, CCL20 stimulation). To be noted: HEK293 cells stably expressing human CCR6, EC80 human MIP-3 alpha/CCL20; read-out: CCR6 inhibitory activity, IC50. Format: cell-based. The gist of the method: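 Compounds preincubated with Fluo-4 Direct-loaded cells 50 min at 37 °C, then 10 min at room temperature, before CCL20 challenge at EC80. Fluorescence (ex 494/em 516 nm) recorded 90 s; max−min signal gives inhibition, four-parameter fit yields IC50.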
On the technique in general: Calcium flux is commonly read through the fluorescence of an indicator in the cells.

The nature of series [5]: in vivo pharmacokinetic study in SD rats. The note with it: rat; for bioavailability: 1 mg/kg PO vs 1 mg/kg IV, read-out: Oral bioavailability F (%); for AUC(0-t) / Cmax / half-life: 1 mg/kg. The method in brief:
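Male SD rats (180-200 g), 3 per route: single fasted oral gavage in 1% Tween 80 or tail-vein IV bolus in 50% PEG400. Orbital blood into EDTA-K2 sampled to 8 h; plasma analysed and PK parameters derived by non-compartmental analysis.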

By IC50 is commonly meant the concentration needed to halve the response being measured. In the case of `CN(C)C(=O)c1nccc(Nc2c(NC(c3ncccn3)C3(C)CCCC3)c(=O)c2=O)c1O` (racemic) [compound 017], in series [1], the “Liver microsome T1-2 (min) Rat” value was 324.15 min. Besides, the “Liver microsome T1-2 (min) Beagle dog” value in series [2] stood at 848.60 min. In series [3], the “Liver microsome T1-2 (min) Human” value was 1176.24 min. The “Liver microsome T1-2 (min) Mouse” value in series [4] stood at 1273.80 min. In addition, on human CCR6, the half-inhibitory concentration (IC50) worked out at 10 nM.
With `Cc1cccnc1[C@@H](Nc1c(Nc2ccnc(C(=O)N(C)C)c2O)c(=O)c1=O)[C@]1(C)CCC(F)(F)C1` (single isomer, unassigned) [125D], the “Liver microsome T1-2 (min) Rat” value in series [1] is listed as 83.07 min. The “Liver microsome T1-2 (min) Beagle dog” value in series [2] came to 220.11 min. Also, the “Liver microsome T1-2 (min) Human” value in series [3] turned out to be 572.07 min. Further, the “Liver microsome T1-2 (min) Mouse” value in series [4] turned out to be 19686.4 min.
The matching figures for `Cc1cccnc1[C@@H](Nc1c(Nc2ccnc(C(=O)N(C)C)c2O)c(=O)c1=O)[C@@]1(C)CCC(F)(F)C1` [125C]: 32.18 min, 222.01 min, 343.09 min and 550.74 min.
Regarding `CN(C)C(=O)c1nccc(Nc2c(N[C@@H](c3cccc(F)n3)C3(C)CCCC3)c(=O)c2=O)c1O` [compound 002, (R)-4-((2-(((6-fluoropyridin-2-yl)(1-methylcyclopentyl)methyl)amino)-3,4-dioxocyclobut-1-en-1-yl)amino)-3-hydroxy-N,N-dimethylpicolinamide], in series [1], the “Liver microsome T1-2 (min) Rat” value was 85.28 min. In addition, in series [2], the “Liver microsome T1-2 (min) Beagle dog” value is reported as 202.32 min. Besides, the “Liver microsome T1-2 (min) Human” value in series [3] worked out at 281.53 min. In addition, the “Liver microsome T1-2 (min) Mouse” value in series [4] is recorded as 1127.82 min. Also, the 50% inhibitory concentration (IC50) on human CCR6 came out at 7 nM.
The matching figures for `CN(C)C(=O)c1nccc(Nc2c(N[C@@H](c3ccccn3)C3(C)CCCC3)c(=O)c2=O)c1O` [compound 004, (R)-3-hydroxy-N,N-dimethyl-4-((2-(((1-methylcyclopentyl)(pyridin-2-yl)methyl)amino)-3,4-dioxocyclobut-1-en-1-yl)amino)picolinamide]: 90.26 min, 320.98 min, 672.88 min, 6368.42 min and 12.3 nM.
Take `CN(C)C(=O)c1nccc(Nc2c(N[C@@H](c3cc(F)cc(F)n3)C3(C)CCCC3)c(=O)c2=O)c1O` [compound 022, (R)-4-((2-(((4,6-difluoropyridin-2-yl)(1-methylcyclopentyl)methyl)amino)-3,4-dioxocyclobut-1-en-1-yl)amino)-3-hydroxy-N,N-dimethylpicolinamide]: in series [1], the “Liver microsome T1-2 (min) Rat” value is 116.86 min. The “Liver microsome T1-2 (min) Beagle dog” value in series [2] is 271.86 min. The “Liver microsome T1-2 (min) Human” value in series [3] is recorded as 271.15 min. Further, the “Liver microsome T1-2 (min) Mouse” value in series [4] came out at 1925.01 min. For the same compound, the IC50 on human CCR6 came out at 7.4 nM.
For `CN(C)C(=O)c1nccc(Nc2c(NC(c3nc(F)ccc3F)C3(C)CC(F)(F)CO3)c(=O)c2=O)c1O` (stereo not shown) [compound 062, 4-((2-(((4,4-difluoro-2-methyltetrahydrofuran-2-yl)(3,6-difluoropyridin-2-yl)methyl)amino)-3,4-dioxocyclobut-1-en-1-yl)amino)-3-hydroxy-N,N-dimethylpicolinamide], the “Liver microsome T1-2 (min) Rat” value in series [1] turned out to be 801.17 min. The “Liver microsome T1-2 (min) Beagle dog” value in series [2] stood at 1250.74 min. The “Liver microsome T1-2 (min) Human” value in series [3] is on record as 1048.05 min. In addition, in series [4], the “Liver microsome T1-2 (min) Mouse” value was determined as 228.33 min. In addition, the IC50 at human CCR6 was determined as 32.9 nM.
For the compound `Cc1cc(F)cnc1[C@H](Nc1c(Nc2ccnc(C(=O)N(C)C)c2O)c(=O)c1=O)C1(C)CCCC1` [compound 065, (R)-4-((2-(((5-fluoro-3-methylpyridin-2-yl)(1-methylcyclopentyl)methyl)amino)-3,4-dioxocyclobut-1-en-1-yl)amino)-3-hydroxy-N,N-dimethylpicolinamide], in series [1], the “Liver microsome T1-2 (min) Rat” value is 39.70 min. The “Liver microsome T1-2 (min) Beagle dog” value in series [2] stood at 200.21 min. Besides, the “Liver microsome T1-2 (min) Human” value in series [3] is reported as 197.68 min. Further, the “Liver microsome T1-2 (min) Mouse” value in series [4] was ≥120 min. The IC50 on human CCR6 was 3.9 nM.
One may read the bioavailability as the share of a dose that reaches the circulation, judged against a reference dose that is usually intravenous. For orientation: AUC(0-t) means exposure summed from dosing to a finite time, without extrapolation to infinity. What is called Cmax is the peak of the concentration-time curve. One may read the half-life as the time in which the quantity being followed falls by half. As to `CN(C)C(=O)c1nccc(Nc2c(NC(C#CC3CCC3)C3(C)CC(F)(F)CO3)c(=O)c2=O)c1O` (stereo not shown) [compound 110], in series [1], the “Liver microsome T1-2 (min) Rat” value was 97.61 min. In series [2], the “Liver microsome T1-2 (min) Beagle dog” value is 369.92 min. For the same compound, the bioavailability in series [5] (in vivo) worked out at 60.2%. In series [5] (in vivo, IV), this compound had an AUC(0-t) of 739 ng·h/mL, a Cmax of 3780 ng/mL and a half-life of 17.4 min. In series [5] (in vivo, PO), the AUC(0-t) was 444 ng·h/mL, the maximum concentration (Cmax) is 268 ng/mL and the half-life is 57.6 min. Also, the “Liver microsome T1-2 (min) Human” value in series [3] is listed as 324.84 min. Further, the “Liver microsome T1-2 (min) Mouse” value in series [4] was determined as 1846.01 min.
Turning to `CN(C)C(=O)c1nccc(Nc2c(NC(c3nc(F)ccc3F)C3(C)CC4CC4C3)c(=O)c2=O)c1O` (stereo not shown) [compound 126, 4-((2-(((3,6-difluoropyridin-2-yl)(3-methylbicyclo[3.1.0]hexan-3-yl)methyl)amino)-3,4-dioxocyclobut-1-en-1-yl)amino)-3-hydroxy-N,N-dimethylpicolinamide], the “Liver microsome T1-2 (min) Rat” value in series [1] was 58.22 min. In series [2], the “Liver microsome T1-2 (min) Beagle dog” value is 331.52 min. Moreover, the bioavailability in series [5] (male, plasma) turned out to be 26.9%. In series [5] (male, plasma, IV), this compound came in with an AUC(0-t) of 1550 ng·h/mL and a Cmax of 3900 ng/mL. In series [5] (male, plasma, PO), this compound yielded an AUC(0-t) of 417 ng·h/mL and a peak concentration (Cmax) of 266 ng/mL. Moreover, the “Liver microsome T1-2 (min) Human” value in series [3] came to 531.62 min. For the same compound, the “Liver microsome T1-2 (min) Mouse” value in series [4] is given as ≥120 min.
